# Assay results: ChEMBL document CHEMBL1143427, “Interactions of ceftobiprole with beta-lactamases from molecular classes A to D” (Antimicrob Agents Chemother, 2007)
# Key:
# [1] = biological target: Beta-lactamase (Morganella morganii) (UniProt P94958); test: Activity of Morganella morganii AmpC assessed as drug hydrolysis by spectrophotometry relative to cephaloridine; design: scale not given: the % may be the effect or the level left
# [2] = biological target: Beta-lactamase (Morganella morganii) (UniProt P94958); test: Ratio of Kcat to Km of Morganella morganii AmpC assessed as drug hydrolysis by spectrophotometry relative to cephaloridine; design: scale not given: the % may be the effect or the level left
# [3] = biological target: Beta-lactamase (Pseudomonas aeruginosa (strain ATCC 15692 / PAO1 / 1C / PRS 101 / LMG12228)) (UniProt P24735); test: Activity of Pseudomonas aeruginosa 4352 AmpC assessed as drug hydrolysis by spectrophotometry relative to cephaloridine; design: scale not given: the % may be the effect or the level left
# Sequence of Beta-lactamase (Pseudomonas aeruginosa (strain ATCC 15692 / PAO1 / 1C / PRS 101 / LMG12228)) (P24735 27-397 limits assumed): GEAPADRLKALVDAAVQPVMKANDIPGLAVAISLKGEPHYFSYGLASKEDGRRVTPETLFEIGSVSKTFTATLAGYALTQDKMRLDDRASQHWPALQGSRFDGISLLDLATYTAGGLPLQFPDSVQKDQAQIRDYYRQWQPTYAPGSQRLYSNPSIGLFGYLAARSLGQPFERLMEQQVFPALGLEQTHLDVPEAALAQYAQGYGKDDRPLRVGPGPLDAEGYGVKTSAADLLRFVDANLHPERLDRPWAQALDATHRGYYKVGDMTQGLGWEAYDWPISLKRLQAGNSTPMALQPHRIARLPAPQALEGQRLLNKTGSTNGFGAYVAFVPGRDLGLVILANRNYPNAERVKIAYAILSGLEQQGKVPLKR
# [4] = biological target: Beta-lactamase (Pseudomonas aeruginosa (strain ATCC 15692 / PAO1 / 1C / PRS 101 / LMG12228)) (UniProt P24735); test: Ratio of Kcat to Km of Pseudomonas aeruginosa 4352 AmpC assessed as drug hydrolysis by spectrophotometry relative to cephaloridine; design: scale not given: the % may be the effect or the level left
# [5] = biological target: Beta-lactamase (Serratia marcescens) (UniProt P18539); test: Activity of Serratia marcescens AmpC assessed as drug hydrolysis by spectrophotometry relative to cephaloridine; design: scale not given: the % may be the effect or the level left
# Sequence of Beta-lactamase (Serratia marcescens) (P18539 whole entry): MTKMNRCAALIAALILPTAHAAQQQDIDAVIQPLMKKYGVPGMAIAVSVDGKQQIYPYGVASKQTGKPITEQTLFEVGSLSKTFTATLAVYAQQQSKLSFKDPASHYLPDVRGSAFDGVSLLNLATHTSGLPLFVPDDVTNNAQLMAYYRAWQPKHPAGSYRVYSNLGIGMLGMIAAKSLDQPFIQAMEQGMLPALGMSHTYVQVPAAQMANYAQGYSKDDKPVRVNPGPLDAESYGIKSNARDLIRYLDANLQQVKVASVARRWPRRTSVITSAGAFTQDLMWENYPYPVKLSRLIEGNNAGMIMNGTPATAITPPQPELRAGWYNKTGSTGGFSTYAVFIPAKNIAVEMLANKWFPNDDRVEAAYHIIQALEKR
# [6] = biological target: Beta-lactamase (Serratia marcescens) (UniProt P18539); test: Ratio of Kcat to Km of Serratia marcescens AmpC assessed as drug hydrolysis by spectrophotometry relative to cephaloridine; design: scale not given: the % may be the effect or the level left
# [7] = biological target: Beta-lactamase TEM (Escherichia coli) (UniProt P62593); test: Ratio of Kcat to Km of Escherichia coli TEM1 assessed as drug hydrolysis by spectrophotometry relative to cephaloridine; design: scale not given: the % may be the effect or the level left
# Sequence of Beta-lactamase TEM (Escherichia coli) (P62593 whole entry): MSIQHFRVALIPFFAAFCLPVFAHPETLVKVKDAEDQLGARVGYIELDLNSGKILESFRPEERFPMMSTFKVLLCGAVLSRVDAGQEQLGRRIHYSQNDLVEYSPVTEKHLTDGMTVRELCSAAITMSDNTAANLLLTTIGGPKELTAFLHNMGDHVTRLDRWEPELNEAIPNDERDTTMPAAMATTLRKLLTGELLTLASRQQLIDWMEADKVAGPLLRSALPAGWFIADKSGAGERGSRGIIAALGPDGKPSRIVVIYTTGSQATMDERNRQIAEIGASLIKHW
# [8] = biological target: T1, Beta-lactamase SHV-1 (Klebsiella pneumoniae) (UniProt P0AD64); test: Activity of Klebsiella pneumoniae SHV1 assessed as drug hydrolysis by spectrophotometry relative to cephaloridine; design: scale not given: the % may be the effect or the level left
# T1 sequence (whole entry): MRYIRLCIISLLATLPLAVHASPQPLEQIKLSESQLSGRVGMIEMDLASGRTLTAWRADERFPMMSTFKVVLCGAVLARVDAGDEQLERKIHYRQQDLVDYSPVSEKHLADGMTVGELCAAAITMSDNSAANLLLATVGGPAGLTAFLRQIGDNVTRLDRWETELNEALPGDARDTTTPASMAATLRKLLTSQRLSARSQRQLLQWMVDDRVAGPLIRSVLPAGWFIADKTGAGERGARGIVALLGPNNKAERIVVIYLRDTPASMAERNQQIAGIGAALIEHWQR
# [9] = biological target: T1, Beta-lactamase SHV-1 (Klebsiella pneumoniae); test: Ratio of Kcat to Km of Klebsiella pneumoniae SHV1 assessed as drug hydrolysis by spectrophotometry relative to cephaloridine; design: scale not given: the % may be the effect or the level left
# [10] = biological target: Beta-lactamase CTX-M (Escherichia coli) (UniProt Q9EXV5); test: Activity of Escherichia coli CTX-M-15 assessed as drug hydrolysis by spectrophotometry relative to cephaloridine; design: scale not given: the % may be the effect or the level left
# [11] = biological target: Beta-lactamase CTX-M (Escherichia coli) (UniProt Q9EXV5); test: Ratio of Kcat to Km of Escherichia coli CTX-M-15 assessed as drug hydrolysis by spectrophotometry relative to cephaloridine; design: scale not given: the % may be the effect or the level left
# [12] = biological target: T2, Beta-lactamase (Klebsiella oxytoca) (UniProt Q8RT60); test: Activity of Klebsiella oxytoca beta-lactamase K1 assessed as drug hydrolysis by spectrophotometry relative to cephaloridine; design: scale not given: the % may be the effect or the level left
# T2 sequence (whole entry): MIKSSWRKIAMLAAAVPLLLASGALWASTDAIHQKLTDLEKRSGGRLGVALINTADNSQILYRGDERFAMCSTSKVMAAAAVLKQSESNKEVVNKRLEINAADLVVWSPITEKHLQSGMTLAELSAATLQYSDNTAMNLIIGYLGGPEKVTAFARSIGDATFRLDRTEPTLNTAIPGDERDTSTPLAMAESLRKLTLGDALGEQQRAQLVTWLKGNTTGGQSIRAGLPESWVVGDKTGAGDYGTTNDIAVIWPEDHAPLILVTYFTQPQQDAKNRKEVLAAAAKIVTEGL
# [13] = biological target: T2, Beta-lactamase (Klebsiella oxytoca); test: Ratio of Kcat to Km of Klebsiella oxytoca beta-lactamase K1 assessed as drug hydrolysis by spectrophotometry relative to cephaloridine; design: scale not given: the % may be the effect or the level left
# Klebsiella pneumoniae [14] = test: Activity of Klebsiella pneumoniae TEM26 assessed as drug hydrolysis by spectrophotometry
# Klebsiella pneumoniae [15] = test: Activity of Klebsiella pneumoniae TEM26 assessed as drug hydrolysis by spectrophotometry relative to cephaloridine; design: scale not given: the % may be the effect or the level left
# Klebsiella pneumoniae [16] = test: Ratio of Kcat to Km of Klebsiella pneumoniae TEM26 assessed as drug hydrolysis by spectrophotometry
# Klebsiella pneumoniae [17] = test: Ratio of Kcat to Km of Klebsiella pneumoniae TEM26 assessed as drug hydrolysis by spectrophotometry relative to cephaloridine; design: scale not given: the % may be the effect or the level left
# [18] = biological target: T3, Carbapenem-hydrolyzing beta-lactamase SME-3 (Serratia marcescens) (UniProt Q6PRG8); test: Activity of Serratia marcescens SME3 assessed as drug hydrolysis by spectrophotometry relative to cephaloridine; design: scale not given: the % may be the effect or the level left
# T3 sequence (whole entry): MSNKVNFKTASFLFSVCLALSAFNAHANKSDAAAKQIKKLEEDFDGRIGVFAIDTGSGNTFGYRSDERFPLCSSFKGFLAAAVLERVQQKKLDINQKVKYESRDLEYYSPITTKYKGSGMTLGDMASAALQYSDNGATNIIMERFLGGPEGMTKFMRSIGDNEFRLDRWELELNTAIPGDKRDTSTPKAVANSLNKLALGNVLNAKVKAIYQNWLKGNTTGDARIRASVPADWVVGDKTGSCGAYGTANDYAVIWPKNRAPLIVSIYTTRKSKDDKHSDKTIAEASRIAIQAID
# [19] = biological target: T3, Carbapenem-hydrolyzing beta-lactamase SME-3 (Serratia marcescens); test: Ratio of Kcat to Km of Serratia marcescens SME3 assessed as drug hydrolysis by spectrophotometry relative to cephaloridine; design: scale not given: the % may be the effect or the level left
# [20] = biological target: Beta-lactamase VIM-2 (Pseudomonas aeruginosa) (UniProt Q9K2N0); test: Activity of Pseudomonas aeruginosa VIM2 assessed as drug hydrolysis by spectrophotometry relative to cephaloridine; design: scale not given: the % may be the effect or the level left
# [21] = biological target: Metallo beta-lactamase (Pseudomonas aeruginosa) (UniProt Q6TUJ4); test: Ratio of Kcat to Km of Pseudomonas aeruginosa IMP1 assessed as drug hydrolysis by spectrophotometry relative to cephaloridine; design: scale not given: the % may be the effect or the level left
# Sequence of Metallo beta-lactamase (Pseudomonas aeruginosa) (Q6TUJ4 as listed by the source): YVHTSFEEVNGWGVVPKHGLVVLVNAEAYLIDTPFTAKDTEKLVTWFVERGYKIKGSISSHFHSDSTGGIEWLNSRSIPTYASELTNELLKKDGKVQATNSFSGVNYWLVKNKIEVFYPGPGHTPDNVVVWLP
# [22] = biological target: Beta-lactamase VIM-2 (Pseudomonas aeruginosa) (UniProt Q9K2N0); test: Ratio of Kcat to Km of Pseudomonas aeruginosa VIM2 assessed as drug hydrolysis by spectrophotometry relative to cephaloridine; design: scale not given: the % may be the effect or the level left
# [23] = biological target: Beta-lactamase TEM (Escherichia coli) (UniProt P62593); test: Activity of Escherichia coli TEM1 assessed as drug hydrolysis by spectrophotometry relative to cephaloridine; design: scale not given: the % may be the effect or the level left
# [24] = biological target: Beta-lactamase (Staphylococcus aureus) (UniProt P00807); test: Ratio of Kcat to Km of Staphylococcus aureus betalactamase PC1 assessed as drug hydrolysis by spectrophotometry relative to cephaloridine; design: scale not given: the % may be the effect or the level left
# Sequence of Beta-lactamase (Staphylococcus aureus) (P00807 whole entry): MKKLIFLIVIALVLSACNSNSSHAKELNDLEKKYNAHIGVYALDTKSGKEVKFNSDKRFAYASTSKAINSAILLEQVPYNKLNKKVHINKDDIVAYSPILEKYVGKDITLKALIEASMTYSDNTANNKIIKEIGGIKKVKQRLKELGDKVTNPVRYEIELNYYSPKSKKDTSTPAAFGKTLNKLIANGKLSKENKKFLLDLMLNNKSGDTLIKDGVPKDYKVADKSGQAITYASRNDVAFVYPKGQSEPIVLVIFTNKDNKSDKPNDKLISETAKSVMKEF
# [25] = biological target: Beta-lactamase (Staphylococcus aureus) (UniProt P00807); test: Activity of Staphylococcus aureus betalactamase PC1 assessed as drug hydrolysis by spectrophotometry relative to cephaloridine; design: scale not given: the % may be the effect or the level left
# [26] = biological target: T4, Beta-lactamase (Providencia stuartii) (UniProt O69773); test: Activity of Providencia stuartii AmpC assessed as drug hydrolysis by spectrophotometry relative to cephaloridine; design: scale not given: the % may be the effect or the level left
# T4 sequence (whole entry): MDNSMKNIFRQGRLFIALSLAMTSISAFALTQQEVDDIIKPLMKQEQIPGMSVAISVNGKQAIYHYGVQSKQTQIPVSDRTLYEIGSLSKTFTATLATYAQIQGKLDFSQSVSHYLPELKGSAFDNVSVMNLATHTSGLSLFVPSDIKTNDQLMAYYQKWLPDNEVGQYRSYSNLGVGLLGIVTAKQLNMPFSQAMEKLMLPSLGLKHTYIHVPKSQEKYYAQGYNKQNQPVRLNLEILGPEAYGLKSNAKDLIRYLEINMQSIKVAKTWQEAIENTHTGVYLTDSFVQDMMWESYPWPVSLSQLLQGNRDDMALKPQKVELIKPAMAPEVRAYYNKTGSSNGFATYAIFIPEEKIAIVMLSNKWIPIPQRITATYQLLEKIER
# [27] = biological target: T4, Beta-lactamase (Providencia stuartii); test: Ratio of Kcat to Km of Providencia stuartii AmpC assessed as drug hydrolysis by spectrophotometry relative to cephaloridine; design: scale not given: the % may be the effect or the level left
# [28] = biological target: Beta-lactamase (Pseudomonas aeruginosa (strain ATCC 15692 / PAO1 / 1C / PRS 101 / LMG12228)) (UniProt P24735); test: Activity of Pseudomonas aeruginosa 18SH AmpC assessed as drug hydrolysis by spectrophotometry relative to cephaloridine; design: scale not given: the % may be the effect or the level left
# [29] = biological target: Beta-lactamase (Pseudomonas aeruginosa (strain ATCC 15692 / PAO1 / 1C / PRS 101 / LMG12228)) (UniProt P24735); test: Ratio of Kcat to Km of Pseudomonas aeruginosa 18SH AmpC assessed as drug hydrolysis by spectrophotometry relative to cephaloridine; design: scale not given: the % may be the effect or the level left
# [30] = biological target: Beta-lactamase (Pseudomonas aeruginosa (strain ATCC 15692 / PAO1 / 1C / PRS 101 / LMG12228)) (UniProt P24735); test: Activity of Pseudomonas aeruginosa MK-1184 AmpC assessed as drug hydrolysis by spectrophotometry relative to cephaloridine; design: scale not given: the % may be the effect or the level left
# [31] = biological target: Beta-lactamase (Pseudomonas aeruginosa (strain ATCC 15692 / PAO1 / 1C / PRS 101 / LMG12228)) (UniProt P24735); test: Ratio of Kcat to Km of Pseudomonas aeruginosa MK-1184 AmpC assessed as drug hydrolysis by spectrophotometry relative to cephaloridine; design: scale not given: the % may be the effect or the level left
# [32] = biological target: Beta-lactamase (Pseudomonas aeruginosa (strain ATCC 15692 / PAO1 / 1C / PRS 101 / LMG12228)) (UniProt P24735); test: Activity of Pseudomonas aeruginosa AmpC assessed as drug hydrolysis by spectrophotometry relative to cephaloridine; design: scale not given: the % may be the effect or the level left
# [33] = biological target: Beta-lactamase (Pseudomonas aeruginosa (strain ATCC 15692 / PAO1 / 1C / PRS 101 / LMG12228)) (UniProt P24735); test: Ratio of Kcat to Km of Pseudomonas aeruginosa AmpC assessed as drug hydrolysis by spectrophotometry relative to cephaloridine; design: scale not given: the % may be the effect or the level left
Compound,Activity [1] [%],Activity [2] [%],Activity [3] [%],Activity [4] [%],Activity [5] [%],Activity [6] [%],Activity [10] [%],Activity [11] [%],Activity [12] [%],Activity [13] [%],Km (Klebsiella pneumoniae [14]) [µM],kcat (Klebsiella pneumoniae [14]) [s⁻¹],Activity (Klebsiella pneumoniae [15]) [%],kcat/Km (Klebsiella pneumoniae [16]) [M⁻¹ s⁻¹],Activity (Klebsiella pneumoniae [17]) [%],also measured
O=C(Cc1cccs1)N[C@@H]1C(=O)N2C(C(=O)O)=C(/C=C/c3ccc([N+](=O)[O-])cc3[N+](=O)[O-])CS[C@H]12,160,1400,68,1800,42,19,,,,,,,,,,
CO/N=C(\C(=O)N[C@@H]1C(=O)N2C(C(=O)[O-])=C(C[N+]3(C)CCCC3)CS[C@H]12)c1csc(N)n1,< 0.047,< 0.018,< 0.012,0.011,< 0.028,< 0.022,24,5.1,8.5,0.84,65,20,54,310000,55,Activity [7]: 0.38%; Activity [8]: 0.42%; Activity [9]: 0.81%; Activity [18]: 0.13%; Activity [19]: 0.18%; Activity [20]: 0.32%; Activity [21]: 200%; Activity [22]: 4.1%; Activity [23]: 0.45%; Activity [24]: 2.5%; Activity [25]: 1.4%; Activity [26]: 0.57%; Activity [27]: 0.66%; Activity [28]: < 0.1%; Activity [29]: 0.5%; Activity [30]: 1.5%; Activity [31]: 0.78%; Activity [32]: 19%; Activity [33]: 1.6%
CO/N=C(\C(=O)N[C@@H]1C(=O)N2C(C(=O)O)=C(COC(C)=O)CS[C@H]12)c1csc(N)n1,,,,,,,95,140,13,2.3,15,2.9,7.8,190000,34,
